Consider eleven compounds from patent publication US20240101566A1, “TRICYCLIC UBIQUITIN SPECIFIC PROTEASE 1 INHIBITOR AND USE THEREOF” (SHANDONG XUANZHU PHARMA CO., LTD., priority 2021, published 2024).

Experiment [1] has as its target T1, Recombinant Human His6-USP1/His6-UAF1 Complex Protein (Homo sapiens (Human), UniProt O94782). Nature of the experiment: In-vitro enzymatic activity on USP1, first experimental method (Ub-Rho substrate, 15 min incubation). To be noted: incubation at room temperature 15 minutes, read-out: Inhibitory activities on USP-1, IC50. Format: biochemical. The protocol: Experimental Example 1 In-vitro Enzymatic Activities of Compounds of the Present Disclosure
First Experimental Method:
1) The compounds of the present disclosure were prepared to 10 mM with DMSO, and used as test stock solutions.
2) The stock solutions of the compounds of the present disclosure were diluted in a 4-fold gradient for 10 concentrations, with a maximum concentration of 10 mM.
3) The diluted compounds of the present disclosure were respectively transferred to 384-well plates (diluted by 1,000 folds) by Echo550, 2 multiple wells were set for each concentration, and a final concentration of DMSO was […].
(§1) 1) An enzyme solution was prepared in 1×test buffer.
(§2) 2) Ubiquitin Rhodamine 110 protein, CF (UB-Rho), was added into 1×determination buffer to prepare a substrate solution.
(§3) 3) 10 μL of enzyme solution and 1×reaction buffer were transferred to a 384-well plate, and
(§4) 4) incubated at room temperature for 15 minutes.
(§5) 5) 10 μL of substrate solution was added into each well to start the reaction, centrifuged for 30 seconds, and shaken for 30 seconds.
(§6) 1) Plate reading was carried out on SpectraMax Paradigm for 30 minutes, with an excitation wavelength of 480 nm and an emission wavelength of 540 nm.
2) Data on SpectraMax Paradigm were collected.
An inhibition (% inh) was calculated by the following formula:
(§7) [formula] • wherein, Max represented: a luminous signal intensity of a positive control well without adding the compound; • Min represented: a luminous signal intensity of a negative control well without adding the enzyme; and • Signal represented: a luminous signal intensity of the compound of the test sample.
IC50 was Calculated by the Following Formula:
(§8) [formula] • wherein, Y represented: % inhibition; and • X represented: the concentration of the compound.

The subject of experiment [2] is MDA-MB-436 cells. Briefly: First in-vitro cytological inhibitory activity experiment (CelltiterGlo assay). Format: cell-based, human. To be noted: Homo sapiens, MDA-MB-436, 168 h, Experimental Example 2, 4,000 cells/well, 7 days, read-out: In-vitro cytological activities, IC50, MDA-MB-436. As to the method: Experimental Example 2 First Experiment of in-vitro Cytological Inhibitory Activities of Compounds of the Present Disclosure
A cell line used in the following experiment was as follows: MDA-MB-436: human breast cancer cells.
Experimental method (CelltiterGlo assay)
All cells were adherent cells, the medium was DMEM+10% FBS+1% ITS-G+16 μg/ml glutathione, and the cells were tested in a logarithmic growth phase.
(§9) Cells in the logarithmic growth phase were collected and counted by a […]. The cell viability was detected by a trypan blue exclusion method, and the cell viability was kept over 90%. The cell concentration was adjusted to be in a proper range, and 90 μL of cell suspension was added into a 96-well plate respectively.
(§10) 2.1 DMSO stock solutions of the test compounds were prepared, and concentrations of the stock solutions of the test compounds were 10 mM respectively.
The stock solutions of the test compounds were serially diluted from 10 mM with DMSO in a 3-fold gradient for a total of 8 concentrations. Then, 2 µL of DMSO-gradient diluted compounds were respectively added into 198 µL of culture solutions to give the working stock solutions of the test compounds (a compound concentration was 10-fold higher than the final concentration, and a maximum concentration was […]).
(§11) 10 μL of compound working stock solution was added into each well in the 96-well plate inoculated with cells (10-fold dilution, a final DMSO concentration was 0.1%).
Solvent control: 0.1% DMSO. […]
(§12) A CTG reagent was thawed and the 96-well plate was equilibrated to room temperature for 30 minutes, 60 μL of reagent (Celititer Glo assay kit) was added into each well, shaking was carried out for 2 minutes with a shaker (in the absence of light), and the plate was incubated at room temperature for 20 minutes (in the absence of light). Light signal values were read on a multi-functional microplate reader.
1) inhibition (%)=(DMSO solvent control well reading−test compound well reading)/(DMSO solvent control well reading−blank control well reading)×100%; […]
On the technique in general: Cellular ATP, detected with luciferase, serves as a proxy for viable cell number.

Experiment [3] deals with T1, Recombinant Human His6-USP1/His6-UAF1 Complex Protein. Briefly: In-vitro enzymatic activity on USP1, second experimental method (60 min incubation). To be noted: incubation at room temperature 60 minutes, read-out: Inhibitory activities on USP-1, IC50. It counts as biochemical. As to the method:
as §1, §2, §3, §4, §5, §6, §7, §8
(§13) Second Experimental Method:
In the enzyme reaction experiment, the incubation time at room temperature in the step 4) was changed to 60 minutes, other conditions were the same as those in the first experimental method, and the following test results were obtained: […]

The subject of experiment [4] is Caov-3 cells. Briefly: Second in-vitro cytological inhibitory activity experiment, first method (CelltiterGlo assay), Caov-3. To be noted: Homo sapiens, Caov-3, 168 h, Experimental Example 3 first method, 2,000 cells/well, 7 days. Format: cell-based. The protocol:
(§14) Experimental Example 3 Second Experiment of in-vitro Cytological Inhibitory Activities of Compounds of the Present Disclosure
(§15) Cell lines used in the following experiment were as follows: MDA-MB-436: human breast cancer cells; and Caov-3: Human ovarian cancer cells
(§16) First Experimental Method (CelltiterGlo Assay)
(§17) All cells were adherent cells, the MDA-MB-436 cell medium was DMEM+10% FBS+1% ITS-G+16 μg/ml glutathione, the Caov-3 cell medium was DMEM+10% FBS, and cells were tested in a logarithmic growth phase.
as §9, §10
(§18) The stock solutions of the test compounds were serially diluted from 10 mM with DMSO in a 3-fold gradient for a total of 8 concentrations. Then, 2 µL of DMSO-gradient diluted compounds were respectively added into 198 µL of culture solutions to give the working stock solutions of the test compounds (a compound concentration was 10-fold higher than the final concentration, and a maximum concentration was 100 μM).
as §11
(§19) Solvent control: 0.1% DMSO.
(§20) Blank control: 0 hour after dosing, the 96-well plate was detected and read.
(§21) 2.5 The 96-well plate was placed in a 5% CO2 cell incubator at 37° C. to culture for 7 days.
as §12
(§22) 1) inhibition (%)=(DMSO solvent control well reading−test compound well reading)/(DMSO solvent control well reading−blank control well reading)×100%;
(§23) 2) GraphPad Prism was input for drawing to obtain a curve and IC50.

The test system of experiment [5] is MDA-MB-436 cells. Nature of the experiment: Second in-vitro cytological inhibitory activity experiment, first method (CelltiterGlo assay), MDA-MB-436. Format: cell-based. To be noted: Homo sapiens, MDA-MB-436, 168 h, Experimental Example 3 first method, 3,000 cells/well, 7 days, read-out: In-vitro cytological activities, IC50, MDA-MB-436. As to the method:
as §14, §15, §16, §17, §9, §10, §18, §11, §19, §20, §21, §12, §22, §23

Experiment [6] concerns Caov-3 cells. Briefly: Second in-vitro cytological inhibitory activity experiment, second method, Caov-3. Format: cell-based. To be noted: Homo sapiens, Experimental Example 3 second method, 5 mM stock, 9 concentrations. As to the method: as §13
(§24) The concentrations of the compound stock solutions prepared were 5 mM.
(§25) The stock solutions of the test compounds were serially diluted from 5 mM with DMSO in a 3-fold gradient for a total of 9 concentrations.

Experiment [7] relates to MDA-MB-436 cells. Briefly: Second in-vitro cytological inhibitory activity experiment, second method, MDA-MB-436. The settings on record: Homo sapiens, Experimental Example 3 second method, 5 mM stock, 9 concentrations. It counts as cell-based. As to the method:
as §13, §24, §25

T1 sequence (O94782 whole entry): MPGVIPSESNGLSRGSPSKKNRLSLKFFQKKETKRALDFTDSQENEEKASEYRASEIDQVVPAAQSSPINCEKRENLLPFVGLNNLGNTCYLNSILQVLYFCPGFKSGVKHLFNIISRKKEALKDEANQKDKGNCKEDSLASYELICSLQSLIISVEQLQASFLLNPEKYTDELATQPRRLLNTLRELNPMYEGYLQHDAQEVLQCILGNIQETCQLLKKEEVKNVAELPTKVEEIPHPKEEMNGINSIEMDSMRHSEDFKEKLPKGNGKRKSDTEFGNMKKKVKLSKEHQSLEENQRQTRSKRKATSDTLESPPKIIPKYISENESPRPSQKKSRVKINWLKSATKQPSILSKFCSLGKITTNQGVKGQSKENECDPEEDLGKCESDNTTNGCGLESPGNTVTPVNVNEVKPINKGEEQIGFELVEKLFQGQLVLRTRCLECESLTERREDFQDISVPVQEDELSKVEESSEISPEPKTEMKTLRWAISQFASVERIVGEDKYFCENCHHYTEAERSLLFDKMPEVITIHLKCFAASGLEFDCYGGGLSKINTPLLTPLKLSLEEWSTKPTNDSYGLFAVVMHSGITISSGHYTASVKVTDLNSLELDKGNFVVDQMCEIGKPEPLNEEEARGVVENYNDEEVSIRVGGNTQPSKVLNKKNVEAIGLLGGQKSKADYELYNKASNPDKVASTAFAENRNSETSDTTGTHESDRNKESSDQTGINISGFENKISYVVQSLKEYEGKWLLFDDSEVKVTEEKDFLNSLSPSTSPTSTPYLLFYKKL
T1 sequence (Q8TAF3 whole entry partner): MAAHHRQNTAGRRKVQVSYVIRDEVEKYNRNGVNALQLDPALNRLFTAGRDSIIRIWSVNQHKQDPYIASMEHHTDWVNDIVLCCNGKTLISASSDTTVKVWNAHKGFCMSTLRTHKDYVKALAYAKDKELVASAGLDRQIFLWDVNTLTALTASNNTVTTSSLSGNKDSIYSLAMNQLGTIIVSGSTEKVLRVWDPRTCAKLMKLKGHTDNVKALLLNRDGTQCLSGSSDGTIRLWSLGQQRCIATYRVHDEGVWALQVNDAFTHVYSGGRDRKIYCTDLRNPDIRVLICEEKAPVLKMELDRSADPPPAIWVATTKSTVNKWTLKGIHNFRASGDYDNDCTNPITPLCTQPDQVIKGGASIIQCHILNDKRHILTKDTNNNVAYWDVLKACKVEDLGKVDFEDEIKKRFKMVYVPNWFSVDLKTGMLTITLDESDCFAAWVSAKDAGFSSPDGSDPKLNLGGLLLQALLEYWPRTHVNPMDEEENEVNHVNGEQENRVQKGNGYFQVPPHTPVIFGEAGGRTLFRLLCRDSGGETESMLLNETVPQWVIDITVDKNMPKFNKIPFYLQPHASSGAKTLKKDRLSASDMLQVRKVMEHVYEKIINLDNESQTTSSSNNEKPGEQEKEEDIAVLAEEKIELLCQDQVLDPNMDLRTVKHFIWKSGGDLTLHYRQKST

A word on the IC50: it is the concentration that gives 50% inhibition. For the compound `COc1ncnc(C2CC2)c1-c1nc2c3c(nn(Cc4ccc(-c5nc(C(F)(F)F)cn5C)cc4)c3n1)CCC2` [Compound 1, 4-(4-cyclopropyl-6-methoxypyrimidine-5-yl)-2-(4-(1-methyl-4-(trifluoromethyl)-1H-imidazol-2-yl)benzyl)-2,6,7,8-tetrahydropyrazolo[3,4,5-de]quinazoline], the IC50 amounted to 0.028 µM in experiment [1] and 0.068 µM in experiment [2].

As to `[2H]C([2H])([2H])Oc1ncnc(C2CC2)c1-c1nc2c3c(nn(Cc4ccc(-c5nc(C(F)(F)F)cn5C)cc4)c3n1)CCC2` [Compound 1-1, 4-(4-cyclopropyl-6-(methoxy-d3)pyrimidin-5-yl)-2-(4-(1-methyl-4-(trifluoromethyl)-1H-imidazol-2-yl)benzyl)-2,6,7,8-tetrahydropyrazolo[3,4,5-de]quinazoline], the results for the IC50 in experiment [3], in experiment [4] and in experiment [5] were 0.0129 µM, 0.001 to 0.6 µM and 0.0424 µM, respectively.

With `CC(C)c1c(F)cccc1-c1nc2c3c(nn(Cc4ccc(-c5nc(C(F)(F)F)cn5C)cc4)c3n1)CCC2` [Compound 2, 4-(3-fluoro-2-isopropylphenyl)-2-(4-(1-methyl-4-(trifluoromethyl)-1H-imidazol-2-yl)benzyl)-2,6,7,8-tetrahydropyrazolo[3,4,5-de]quinazoline], the IC50 in experiment [1] is 0.005 µM; in experiment [2], 0.0881 µM.

As for `Cc1cc(C(F)(F)F)nn1-c1ccc(Cn2nc3c4c(nc(-c5cccc(F)c5C(C)C)nc42)CCC3)cc1` [Compound 3, 4-(3-fluoro-2-isopropylphenyl)-2-(4-(5-methyl-3-(trifluoromethyl)-1H-pyrazol-1-yl)benzyl)-2,6,7,8-tetrahydropyrazolo[3,4,5-de]quinazoline], in experiment [1], the IC50 was 0.018 µM.

Turning to `[2H]C([2H])([2H])Oc1ncnc(C2CC2)c1-c1nc2c3c(nn(Cc4ccc(-c5nc(C(F)(F)F)cn5C)cc4)c3n1)CCCC2` [Compound 11-1, 4-(4-cyclopropyl-6-(methoxy-d3)pyrimidin-5-yl)-2-(4-(1-methyl-4-(trifluoromethyl)-1H-imidazol-2-yl)benzyl)-6,7,8,9-tetrahydro-2H-1,2,3,5-tetraazabenzo[cd]azulene], the values for the 50% inhibitory concentration (IC50) in experiment [3], in experiment [4] and in experiment [5] were 0.015 µM, 0.001 to 0.6 µM and 0.122 µM, respectively.

On to `COc1ncnc(C2CC2)c1-c1nc2c3c(nn(Cc4ccc(-c5nc(C(F)(F)F)cn5C(C)C)cc4)c3n1)CCC2` [Compound 16, 4-(4-cyclopropyl-6-methoxypyrimidine-5-yl)-2-(4-(1-isopropyl-4-(trifluoromethyl)-1H-imidazol-2-yl)benzyl)-2,6,7,8-tetrahydropyrazolo[3,4,5-de]quinazoline], for which the IC50 in experiment [3] is 0.008 µM; in experiment [4] it was 0.001 to 0.6 µM; in experiment [5], 0.0423 µM.

With `[2H]C([2H])([2H])Oc1ncnc(C2CC2)c1-c1nc2c3c(nn(Cc4ccc(-c5nc(C(F)(F)F)cn5C(C)C)cc4)c3n1)CCC2` [Compound 16-1, 4-(4-cyclopropyl-6-(methoxy-d3)pyrimidin-5-yl)-2-(4-(1-isopropyl-4-(trifluoromethyl)-1H-imidazol-2-yl)benzyl)-2,6,7,8-tetrahydropyrazolo[3,4,5-de]quinazoline], the IC50 in experiment [3] was 0.00667 µM; in experiment [4], 0.001 to 0.6 µM; in experiment [5] it was 0.0553 µM.

Consider `[2H]C([2H])([2H])Oc1ncnc(C2CC2)c1-c1nc2c3c(nn(Cc4ccc(-c5nc(C(F)(F)F)cn5C(C)C)cc4)c3n1)CCCC2` [Compound 17-1, 4-(4-cyclopropyl-6-(methoxy-d3)pyrimidin-5-yl)-2-(4-(1-isopropyl-4-(trifluoromethyl)-1H-imidazol-2-yl)benzyl)-6,7,8,9-tetrahydro-2H-1,2,3,5-tetraazabenzo[cd]azulene], for which the results for the IC50 in experiment [3], in experiment [4] and in experiment [5] were 0.00666 µM, 0.001 to 0.6 µM and 0.11 µM, respectively.

For `Cc1cnn(C(C)C)c1-c1nc2c3c(nn(Cc4ccc(-c5nc(C(F)(F)F)cn5C)cc4)c3n1)CCC2` [Compound 18, 4-(1-isopropyl-4-methyl-1H-pyrazol-5-yl)-2-(4-(1-methyl-4-(trifluoromethyl)-1H-imidazol-2-yl)benzyl)-2,6,7,8-tetrahydropyrazolo[3,4,5-de]quinazoline], the figures for the IC50 in experiment [3], in experiment [4] and in experiment [5] were 0.00398 µM, 0.001 to 0.6 µM and 0.0297 µM, respectively.

In the case of `Cc1cnn(C(C)C)c1-c1nc2c3c(nn(Cc4ccc(-c5nc(C(F)(F)F)cn5C(C)C)cc4)c3n1)CCC2` [Compound 19, 2-(4-(1-isopropyl-4-(trifluoromethyl)-1H-imidazol-2-yl)benzyl)-4-(1-isopropyl-4-methyl-1H-pyrazol-5-yl)-2,6,7,8-tetrahydropyrazolo[3,4,5-de]quinazoline], the IC50 in experiment [3] was 0.00436 µM; in experiment [4] it was 0.001 to 0.6 µM; in experiment [5] it was 0.0498 µM.

As for `Cn1cc(C(F)(F)F)nc1-c1ccc(Cn2nc3c4c(nc(-c5c(OC(F)F)ncnc5C5CC5)nc42)CCC3)cc1` [Compound 20, 4-(4-cyclopropyl-6-(difluoromethoxy)pyrimidin-5-yl)-2-(4-(1-methyl-4-(trifluoromethyl)-1H-imidazol-2-yl)benzyl)-2,6,7,8-tetrahydropyrazolo[3,4,5-de]quinazoline], the figures for the IC50 in experiment [6] and in experiment [7] were 0.001 to 0.1 µM and 0.0557 µM, respectively.
